Measurements: US20230101046A1, “ANAPLASTIC LYMPHOMA KINASE CHIMERIC ANTIGEN RECEPTORS AND METHODS OF USE” (The Children's Medical Center Corporation, priority 2020, published 2023)

Key:
Kelly or SH-SY5Y cells = assay: Viability / proliferation of neuroblastoma cell lines treated with lorlatinib; format: cell-based, human; details: 100 nM
Description: First generation ALK tyrosine kinase inhibitors (TKIs), such as crizotinib, have limited therapeutic efficacy in neuroblastoma, while the third generation ALK TKI, lorlatinib, is effective against mutated neuroblastoma (Infarinato N R, et al., The ALK/ROS1 Inhibitor PF-06463922 Overcomes Primary Resistance to Crizotinib in ALK-Driven Neuroblastoma. Cancer Discov 2016 January; 6(1):96-107). The effects of lorlatinib on ALK viability and expression in neuroblastoma cells was evaluated. Several neuroblastoma cell lines with various ALK genetic alterations, including NB-1 (ALK WT amplified), IMR-32 (ALK WT), NBL-S(ALK WT), SH-SY5Y (mutated ALK^F1174L), Kelly (mutated ALK^F1174L), were treated with increasing doses of lorlatinib (FIG. 10A). Viability was measured at 48 hours.
In white 96-well plates, 3×10^4 cells/mL were grown in triplicates. The treatment with lorlatinib was done after 24 hour. Cell growth was analyzed 5 days after treatment using Cell Titer-GloMax assay (Promega, Fitchburg, Wis., USA), according to the manufacturer's instructions. In 24-well plates, 5×10^4 cells/mL were grown in triplicates. […] Apoptosis was measured 48 hours after treatment by flow cytometry after staining with the FITC Annexin V and propidium iodide (PI) Staining Solution Apoptosis Detection Kit I (BD Pharmingen) according to the manufacturer's instructions.

[1] = tested on: Eμ-myc/ALK systemic tumors; assay: Adoptive transfer in CD19+/ALK+ systemic leukemia model; format: in vivo, mice
Description: The CD19+/ALK+systemic leukemia model was used to validate and rank cytolytic activity of ALK CARs in vivo. Adoptive transfer of ALK CAR-T cells was conducted in mice with Eμ-myc/ALK systemic tumors. Mice were treated with cytophspamide (CTX, 100 mg/kg) alone (n=8), cytophosphamide plus CAR-CD19 (15×10^6 based on GFP+) (n=8), or cytophosphamide plus CAR-ALK #5 (15×10^6 based on GFP+) (n=8). Untreated mice (n=6) were used as a negative control. FIG. 5A provides a survival curve of these treated mice.
Circulating CD19+/ALK+ tumor cells were found in peripheral blood (FIG. 5B, Left). An ALK+ tumor mass was isolated close to lymph node (FIG. 5B, Right). FACS analysis was also conducted on the 6 out of 8 mice that survived more than two months. No tumor cells were found in peripheral blood of these mice (FIG. 5C).

| SMILES | reduction of proliferation (Kelly or SH-SY5Y cells) | tumor cells in peripheral blood by FACS ([1]; CD19+/ALK+ cells) | survival of mice ([1]; Eμ-myc/ALK systemic tumors, CTX 100 mg/kg, CAR-T 15×10^6 based on GFP+) |
| --- | --- | --- | --- |
| C[C@H]1Oc2cc(cnc2N)-c2c(nn(C)c2C#N)CN(C)C(=O)c2ccc(F)cc21 [Lorlatinib, lorlatinib] | less than 50% |  |  |
| O=P1(N(CCCl)CCCl)NCCCO1 (stereo not drawn) [cyclophosphamide] |  | CD19+/ALK+ cells were found in one mouse | died within one month |
